These results are taken from a melting point compilation (Tetko et al.; mined from patent text by program, amines drawn as free bases though some values may be those of a salt).

Structures are written as SMILES.

`CCOC(=O)COc1ccc2c(-c3ccccc3F)noc2c1Br` registered a melting point of 130 to 131 °C. With `CC(C)CCOc1ccc(C(=O)C(O)O)cc1` the figure was 80 to 85 °C; with `CN(C)C1CCN(c2cccc(-c3cnc4[nH]cc(C(=O)C(C)(C)C)c4n3)c2)C1` (stereo not drawn), 204 to 206 °C; with `O=C(O)CC1c2ccccc2CCN1S(=O)(=O)c1ccc2ccccc2c1` (stereo not drawn), 132 °C. Compound `COc1cc(-c2cc(F)cc(C#N)c2)cc2c1NC(=O)OC2(C)C` gave a melting point of 252 to 253 °C. `CC(C)CC(=O)Nc1cc(-c2ccnc3c(C(=O)c4cccs4)cnn23)ccc1Cl` came in with a melting point of 172 to 175 °C. The figure for `O=C(NCc1cn(-c2ccc(N3CCOCC3)c(F)c2)nn1)C(Cl)Cl` is 190 °C; for `CSCc1cc(C(C)=O)c(O)cc1OCCCCCCC#N` it is 78 °C; for `COc1ccnc(Nc2nc(-c3ccncc3)cs2)c1` it is 190 to 192 °C. The figure for `COCCOc1ccc([N+](=O)[O-])cc1S(=O)(=O)Cl` is 74 to 74.5 °C. For the compound `O=[N+]([O-])c1ccc(C(O)CSCc2ccncc2)cc1` (stereo not drawn), the melting point is 135 to 137 °C. The figure for `CNc1c([N+](=O)[O-])c(Br)nn1C` is 185 °C.

On to `COC(=O)[C@H](Cc1cc(Cl)c(OCCCNC(=O)OC(C)(C)C)c(Cl)c1)NC(=O)C(F)(F)F`, for which the melting point fell in the range of 90 to 91.5 °C. The figure for `Cc1oc(-c2ccccc2)nc1COc1ccc(COc2nn(Cc3ccccc3)cc2C=O)cc1` is 133 to 134 °C. In turn, `O=C(N[C@H](Cc1ccc(C(F)(F)F)cc1)[C@@H](O)c1ccc(F)cc1)c1cccc2c1OCC2` (racemic) had a melting point of 121 to 122 °C. With `CC(C)C[C@@H](C#N)NC(=O)[C@@H]1CCCC[C@@H]1NC(=O)c1cc2ccccc2n1CCO` the figure was 59 to 63.5 °C; with `CC(=O)NC(C(=O)OCc1cc(C)cc(C)c1)C1c2ccccc2-c2ccccc21` (stereo not drawn), 162 to 164 °C. With `O=C1CCC(c2ccccc2)(c2ccccc2)C2CN(C(Cc3ccccc3)=NCc3cccnc3)CC12` (stereo not drawn) the figure was 102 °C. The figure for `CC(C)(C)C(O)(Cn1cncn1)C(Cl)=CBr` (stereo not drawn) is 45 to 48 °C; for `CC=Cc1cc(-c2ccc(F)cc2)cc(C(=O)O)c1O` it is 196 to 200 °C. The compound `COC(=O)CNS(=O)(=O)c1ccc(N2CCC(NC[C@H](O)c3ccc(O)c(NS(C)(=O)=O)c3)CC2)cc1` registered a melting point of 123 to 125 °C. As for `COC(=O)COc1cccc2c1CCC(CC(=O)CBr)C2` (stereo not drawn), the melting point lay in the range of 77 to 78 °C. The figure for `Cc1ccc(OCCC(C(=O)O)c2ccccc2)c2ccccc12` (stereo not drawn) is 130 to 132 °C; for `O=C1c2ccccc2C(=O)N1CCCN1CCC(C(c2ccccc2)c2ccccc2)CC1` it is 104 to 106 °C; for `C=CCCCn1ncc2c(N)c(C(=O)OCC=C)c(C)nc21` it is 62 to 62.5 °C.

Regarding `C[C@H](NC(=O)C[C@@H](CCO)c1ccc(F)cc1)c1ccccc1`, the melting point worked out at 170 °C.

Compound `O=C(CO)N[C@H]1CC[C@H](CCN2CCC(c3cccc4c3CCO4)CC2)CC1` displayed a melting point of 154 °C. The figure for `Cc1ccc2ccc3c(c2c1)CC(=O)O3` is 170 to 171 °C. `Nc1nc2ccccc2c2c1ncn2CCOCCCc1cccs1` came in with a melting point of 130 to 132 °C. The figure for `COc1ccnc(CSc2nc3cc(C(F)(F)F)ccc3[nH]2)c1C` is 148 °C; for `CCCCOC(=O)c1c(C)nc2cc(OC)c(OC)cc2c1-c1ccc(OC)c(OC)c1` it is 119 to 120 °C; for `Cc1nc(C(F)(F)F)ccc1C(Cl)=C1C(=O)C(C)(C)C(=O)C(C)(C)C1=O` it is 92.5 to 93 °C. As for `C=CCS(=O)(=O)c1ncc(Cl)cn1`, the melting point was 84 °C. The figure for `CS(=O)c1nc(-c2ccccc2)cs1` (stereo not drawn) is 104 to 105 °C; for `O=C(Nc1ccc2cc(CN3CCCC3)cnc2c1)N1CCC(c2ccc(Cl)cc2)CC1` it is 249 to 251 °C. With `CCN(C(=O)C1CCC1)c1cccc(-c2ccc3nnc(C)n3n2)c1` the figure was 157 to 159 °C. With `O=C(O)Cn1cccc(NC(=O)CCc2ccccc2)c1=O` the figure was 195 to 197 °C; with `Cc1ccc(S(=O)(=O)N2CCCC2C(=O)OC2c3cc(C#N)ccc3OC(C)(C)C2Br)cc1` (stereo not drawn), 162 to 169 °C; with `COc1cc2c(cc1OC)C1Cc3ccccc3CC(=O)N1CC2` (stereo not drawn), 195 to 197 °C. Compound `Cc1cccc(C)c1CNc1cc(C(=O)N(C)C)nc2c(C)c(C)n(Cc3ccccc3)c12` returned a melting point of 203 °C.

Turning to `Clc1cc(Cl)c2oc(-c3ccc(C=Cc4ccc(-c5ccccc5)cc4)cc3)cc2c1`, the melting point lay within 258 to 260 °C. For the compound `O=C(NC(=O)c1ccccc1F)NC1CN2CCC1CC2` (stereo not drawn), the melting point was in the range of 187 to 188 °C. The figure for `Cc1cc(C)c2c(c1)OC(C)(COc1ccc([N+](=O)[O-])cc1)C=C2` (stereo not drawn) is 116 to 118 °C; for `CC(C)(C#N)c1ccc(Cl)nc1` it is 63 to 65 °C; for `Cc1c(S(C)(=O)=O)ccc(C(=O)O)c1Cl` it is 230 to 231 °C. For the compound `N#Cc1cc(F)c(N=C=S)cc1O`, the melting point was 178 to 180 °C. `CCCc1nc2c(N)nc3cc(-c4ccc(NC(C)=O)cc4)ccc3c2s1`: the melting point lay in the range of 252 to 255 °C.

Compound `Cc1ccc(C=O)c(OCc2ccc(OCc3nc(-c4ccccc4)oc3C)cc2)n1` had a melting point of 114 to 115 °C.

Compound `CCCCCCOC(=O)C(O)C1OC(n2cnc3c(N)ncnc32)C(O)C1O` (stereo not drawn) showed a melting point of 145 to 147 °C. As to `COc1cc(C(=O)NS(=O)(=O)c2ccccc2C)ccc1Cc1c(Cl)n(C)c2ccc(CCNC(=O)N(C)C)cc12`, the melting point lay in the range of 222 to 224 °C. With `N#Cc1ccsc1S(N)(=O)=O` the figure was 152 to 155 °C. As for `Cc1ccc(CCOc2ccc(NC(=O)N(C)C)cc2)nc1`, the melting point lay within 148 to 150 °C. With `O=c1oc2ccccc2c(O)c1CCCCC1CCCCC1` the figure was 160 to 161 °C; with `Cc1nc(Cn2c(=O)sc3cc(F)ccc32)no1`, 142 to 144 °C.

`Cc1ccc(-c2ccc(Cl)cc2)cc1C#CC(C)(C)OCC(=O)O` came in with a melting point of 125 °C. With `CC(=O)NC1CC(C)(C)N(OC2CCCCC2)C(C)(C)C1` the figure was 140 to 144 °C; with `COc1ccccc1Oc1coc(C(=O)O)cc1=O`, 202 to 203 °C. As for `COC(=O)c1ccc(Cl)c(O)c1`, the melting point is 100 to 101 °C. In turn, `CN(C)S(=O)(=O)c1ccc([N+](=O)[O-])cc1C(F)(F)F` showed a melting point of 95 to 97 °C. The figure for `CCCOc1ccc(OC)cc1-c1ncc(C(=O)O)c(=O)[nH]1` is 185 to 187 °C; for `O=C(OC1CCCCC1)c1ncn2c1[C@@H]1CCCN1C(=O)c1c-2ccc(F)c1Cl` it is 163 to 166 °C. Take `COC(=O)c1ccc(Cc2cc3cc(Cl)ccc3n2S(=O)(=O)c2ccc(C(C)C)cc2)cc1`: the melting point turned out to be 99 °C. With `COc1ccc(N(Cc2ccc(N(C)C)cc2)C(=O)C2CCCc3c(O)cccc32)cc1` (stereo not drawn) the figure was 195 to 197 °C; with `O=C1COc2c(cc(Cl)cc2C(=O)NC2CCN(CCc3ccccc3)CC2)N1`, 233 to 235 °C. With `CC(C)(C)OC(=O)N1CCC(OCc2ccccc2)C1CC(=O)Cn1cnc2cccc(C(F)(F)F)c2c1=O` (stereo not drawn) the figure was 218 °C; with `COc1ccc(C(=O)N2c3ccccc3SC2C#N)cc1` (stereo not drawn), 122 to 123 °C. The figure for `COc1c(C2CCN(CCCCNC(=O)c3sc(-c4ccc(Cl)cc4)nc3CO)CC2)ccc2c1CCCC2` is 198 to 200 °C. Compound `O=C(c1ccccc1SSc1ccccc1C(=O)N1CCOCC1)N1CCOCC1` returned a melting point of 103 to 110 °C.

As to `CC(C(O)c1ccccc1)n1nnc2cc3c(cc2c1=O)OC1CCCN1C3=O` (stereo not drawn), the melting point lay in the range of 235 to 238 °C. The figure for `Cc1cc(C#N)cc(C)c1Oc1nc(Nc2ccc(C#N)cc2)nc(N)c1Br` is 271 °C.

Consider `c1cnc(N2CCN(Cc3ccc(CN4CCN(c5ncccn5)CC4)cc3)CC2)nc1`, for which the melting point fell in the range of 193 to 195 °C. `COP(=O)(Cc1cc(C(C)(C)C)c(O)c(C(C)(C)C)c1)C1CCCCC1` (stereo not drawn) came in with a melting point of 149 to 150 °C. With `COc1ccc(CCN2CCC(C(O)(c3cc4ccccc4s3)c3cc4ccccc4s3)CC2)cc1` the figure was 168 to 179 °C.

As for `CC(C)CCOC(=O)c1cccc(-c2cn(C)cc(-n3cccn3)c2=O)c1`, the melting point was 115 to 118 °C. `Cc1cc(S(=O)(=O)N(CC(N)=O)c2ccc(Cl)cc2Cc2cc(F)ccc2F)c(C)cc1Cl`: the melting point amounted to 170 °C. Regarding `CC1(C)[C@@H](C(=O)Nc2cc(C(F)(F)F)n[nH]2)[C@@H]1c1ccc(S(N)(=O)=O)cc1` (relative stereo), the melting point was in the range of 210 to 213 °C. With `O=C(NCCO)c1cccc(-c2ccc3c(c2)C(Oc2ccc(Cl)cc2Cl)CC3)c1` (stereo not drawn) the figure was 155 to 156 °C; with `Cc1nn(C)c(N)c1C(=O)Nc1ccccc1C(C)C`, 144 to 146 °C; with `N#Cc1ccc2c(c1)C(C(=O)O)c1ccccc1CO2` (stereo not drawn), 215 to 217 °C. The figure for `CCCCCN(CCCCC)C(=O)[C@H]1Cc2c([nH]c3ccccc23)CN1C(=O)Nc1cccc(C)c1` is 154 to 155 °C; for `Cc1ccc(C(=O)NCCCN(C)CCCNC(=O)c2ccc(C)c3nc4ccccc4nc23)c2nc3ccccc3nc12` it is 218 to 220 °C; for `O=C(/C=C/c1ccccc1)Nc1ccccc1C(=O)O` it is 188 to 189 °C. The figure for `CC(=O)OC1CSC(Oc2cccnc2C(=O)N2CCCCC2)C(OC(C)=O)C1OC(C)=O` (stereo not drawn) is 89 to 92 °C. Consider `Nc1ccc(/C=C/c2ccccc2)nc1`, for which the melting point was 159 to 160 °C.

As for `CNC(=NC#N)Nc1ccc(C2=NNC(=O)CC2C)cc1` (stereo not drawn), the melting point was 235 °C.

`Clc1cn2c(Cl)cnc2c(Br)n1` gave a melting point of 100 to 101 °C.

`CC(CCCl)C(=O)Nc1cc(C(C)(C)C)no1` (stereo not drawn) had a melting point of 135 to 137 °C. Turning to `CCOC(=O)c1cc(-c2ccc(Cl)cc2)cnc1C(Cl)Cl`, the melting point lay within 132 to 134 °C.
